We go through three substances from article PMC6973051, “Proline‐Rich Peptides with Improved Antimicrobial Activity against E. coli, K. pneumoniae, and A. baumannii” (Chemmedchem, 2019).

Broadly, the MIC is the smallest concentration in the dilution series that meets the test's criterion for growth inhibition. Higher therefore signals weaker potency. The MBC is the lowest tested concentration that kills the bacteria rather than only halting them. Read a high MBC as less potent killing.

Assay [1] deals with E. coli BW25113. The format is cell-based, Escherichia coli. The note with it: BW25113, 18 h. The text has this:
(§1) The following bacterial strains were used: Escherichia coli BW25113, E. coli BW25113ΔsbmA (JW0368‐1, KEIO collection21); Acinetobacter baumannii ATCC 19606, Klebsiella pneumoniae ATCC 700603, Pseudomonas aeruginosa ATCC 27853 and Staphylococcus aureus ATCC 25923. The pathogenic E. coli EURL‐VTEC A07, E. coli EURL‐VTEC C07, E. coli SSI‐NN14, E. coli EA22, E. coli SSI‐OO15 and E. coli C679‐12 strains were generously provided by the European Union Reference Laboratory for E. coli, Department of Food Safety, Nutrition and Veterinary Public Health, Istituto Superiore di Sanità, Rome, Italy. All the strains were grown overnight in Müller‐Hinton broth (MHB, Difco) at 37 °C, with shaking (140 rpm). The day after, the overnight bacterial cultures were diluted approx. 1 : 40 in fresh MHB and incubated at 37 °C with shaking (140 rpm) until an OD600nm of ≈0.3 was reached. E. coli BW25113ΔsbmA was grown in the presence of 50 μg mL^−1 kanamycin.
(§2) Peptides were diluted in 100 μL of MHB to the concentration of 128 μM, dispensed in the first wells of a 96‐wells microtiter plate (round‐bottom) and serially two‐fold diluted with MHB into successive wells in a final volume of 50 μl. Subsequently, 50 μL of a bacterial suspension (5×10^5 CFU mL^−1) were added to each well, halving the final concentration of bacteria and peptides. Bacteria were added to MHB only as bacterial growth‐control, whereas 100 μl of MHB were used to check the medium sterility. The plate was incubated overnight at 37 °C (≈18 hours) and sealed with parafilm to minimise evaporation. The MIC was calculated as the first clear well without bacterial growth. If barely detectable growth was present, the OD600nm of the plate was measured by a multiplate reader Tecan (software Sunrise). The MIC was then calculated as the well whose OD620 was≤1 % of that of the untreated growth control.

In assay [2] the test system is E. coli C679‐12 EAEC:0104. The format is cell-based, Escherichia coli. As to conditions: C679‐12 EAEC:0104, 18 h.
Excerpt: as §1, §2

The test system of assay [3] is E. coli EA22 ETEC. The format is cell-based, Escherichia coli. As to conditions: 18 h.
Excerpt: as §1, §2

For assay [4], the system named is E. coli EURL‐VTEC A07 EPEC:O111. The format is cell-based, Escherichia coli. As to conditions: EURL‐VTEC A07 EPEC:O111, 18 h.
Excerpt: as §1, §2

For assay [5], the system named is E. coli EURL‐VTEC C07 STEC:O157. The format is cell-based, Escherichia coli. The note with it: EURL‐VTEC C07 STEC:O157, 18 h.
Excerpt: as §1, §2

In assay [6] the test system is E. coli SSI‐OO15 EIEC. In kind it is cell-based, Escherichia coli. As to conditions: 18 h.
Excerpt: as §1, §2

Assay [7] has as its system A. baumannii ATCC 19606. The format is cell-based, Acinetobacter baumannii. The note with it: ATCC 19606, 18 h.
Excerpt: as §1
Peptides were diluted in 100 μL of MHB to the concentration of 128 μM, dispensed in the first wells of a 96‐wells microtiter plate (round‐bottom) and serially two‐fold diluted with MHB into successive wells in a final volume of 50 μl. […] The MIC was calculated as the first clear well without bacterial growth. If barely detectable growth was present, the OD600nm of the plate was measured by a multiplate reader Tecan (software Sunrise). […]

In assay [8] the test system is P. aeruginosa ATCC 27853. In kind it is cell-based, Pseudomonas aeruginosa. The note with it: ATCC 27853, 18 h.
Excerpt: as §1, §2

In assay [9] the test system is S. aureus ATCC 25923. The format is cell-based, Staphylococcus aureus. The note with it: ATCC 25923, 18 h.
Excerpt: as §1, §2

Assay [10] has as its system E. coli BW25113. The format is cell-based, Escherichia coli. The text has this: (§3) Table 3 MIC and MBC of the native Bac5(1–17) (wt) and selected Bac5‐derivatives on pathogenic and reference bacterial strains. | column: MBC (μM) / wt; MBC (μM) / 258; MBC (μM) / 272; MBC (μM) / 278; MBC (μM) / 281; MBC (μM) / 291
Assay [11] relates to K. pneumoniae ATCC 700603. In kind it is cell-based, Klebsiella pneumoniae.
Excerpt: as §3

In assay [12] the test system is A. baumannii ATCC 19606. The format is cell-based, Acinetobacter baumannii.
Excerpt: as §3

Assay [13] deals with P. aeruginosa ATCC 27853. In kind it is cell-based, Pseudomonas aeruginosa.
Excerpt: as §3

The test system of assay [14] is S. aureus ATCC 25923. The format is cell-based, Staphylococcus aureus.
Excerpt: as §3

For assay [15], the system named is E. coli BW25113. Put plainly: Propidium iodide uptake by flow cytometry (membrane permeabilization). The format is cell-based, Escherichia coli. The note with it: 1 μM colistin (positive control), 30 min. The method, then:
The bacterial cell integrity was controlled evaluating the propidium iodide (PI) uptake by flow‐cytometry on a Cytomics FC 500 (Beckman‐Coulter). 10^4 bacterial cells were acquired for each measurement. Mid‐log phase E. coli BW25113 cultures diluted to 10^6 CFU mL^−1 in MHB were exposed for 30 min to 4 μM and 16 μM peptides at 37 °C in the presence of 10 μg mL^−1 PI. Membrane permeabilization was calculated as the % PI‐positive cells, and membrane damage measuring the mean fluorescence intensity (MFI). An untreated control received sterile water instead of peptides. By contrast, bacteria were treated with 1 μM colistin as a permeabilizing control. Data are reported as the average ± standard deviation.

Ends that are not written are not given here.

Regarding “RFRPPIRRPPIRPPFYP [wt, reference compound]”, the MIC was 16 µM in assay [1]; 16 µM in assay [2]; 2 µM in assay [3]; 16 µM in [4]; greater than 64 µM in assay [5]; 16 µM in assay [6]. The MIC in assay [7], in assay [8] and in [9] was greater than 64 µM each time. Also, the MBC in assay [10], in [11], in assay [12], in assay [13] and in assay [14] was greater than 64 µM throughout.

Turning to RFRPPIRRPPIRPPFYR [compound 258], the MIC in assay [1] was 8 µM; in assay [2], 8 µM; in assay [3], 2 µM; in assay [4], 8 µM; in assay [5], greater than 64 µM; in assay [6], 4 µM. Besides, the values for the MIC in [7], in assay [8] and in [9] were 64 µM, greater than 64 µM and greater than 64 µM, respectively. Moreover, the MBC in assay [10] is 64 µM; in assay [11], greater than 64 µM; in [12] it was 64 µM; in [13], greater than 64 µM; in [14] it was greater than 64 µM.

With colistin, the “permeabilized bacterial cells (PI‐positive)” value in assay [15] is on record as roughly 100%.
